Data published in patent US8362075B2, “Cyclohexyl sulphones for treatment of cancer” (Merck Sharp & Dohme Corp., priority 2005, dated 2013).

Test system: Cells expressing Notch (ALL-SIL, DND-41, HPB-ALL or TALL-1)
Experiment: Assay for Cell Cycle Arrest (propidium iodide, FACS)
Type: cell-based
Conditions: concentrations up to 10 μM, incubation typically 4-8 days
Procedure: Assay for Cell Cycle Arrest Cells expressing Notch (ALL-SIL, DND-41, HPB-ALL or TALL-1) (Weng et al, Science, 306 (2004), 269-71) were incubated in the presence or absence of a compound of the instant invention (e.g. the compound of Example 39 below) at concentrations up to 10 μM. At the end of the incubation (typically 4-8 days), the cells were collected, fixed in 70% ethanol on ice for >2 hours, washed, then labelled for 15 min at 37° C. with propidium iodide (0.2 mg/ml) (PI) in the presence of 0.1% Triton X100 and 0.2 mg/ml RNase and subjected to FACS analysis. […] Assay for Apoptosis

O=C(O)CC[C@H]1CC[C@@](c2cc(F)ccc2F)(S(=O)(=O)c2ccc(Cl)cc2)CC1 [Example 39, cis-4-[(4-chlorophenyl)sulfonyl]-4-(2,5-difluorophenyl)cyclohexanepropanoic acid]
cell cycle populations versus untreated controls: severe loss of G2- and S-phase populations, consistent with G0/G1 arrest
